# Assays:
# [1] = target: T1, HIV-1 reverse transcriptase (HIV RT) (HIV-1 M:B_HXB2R, UniProt P04585); assay: DRaCALA direct binding, protein titration; settings: labelled compound (32P), 500 nM; K+ buffer pH 7.9, room temperature; concentration given as cdiGMP monomers; octaplex only, cdiGMP M/D does not bind; primer-template site
# T1 construct: gene gag-pol; purchased from Worthington; mature RT cut from Gag-Pol polyprotein; with p51 RT
# [2] = target: T1, HIV-1 reverse transcriptase (HIV RT); assay: primer extension, […] min; assay type: biochemical; settings: 80 mM KCl, 6 mM MgCl2, 100 µM dNTPs, pH 8; G8 prepared in K+; concentration given as cdiGMP monomers; octaplex only, M/D shows no inhibition
substance,measurement,setting,value
cdiGMP G8,Kd,[1],0.7 ± 0.1 µM
same,IC50,[2],28 ± 7 µM

# — article PMC3538687, “Detection of Cyclic Diguanylate G-Octaplex Assembly and Interaction with Proteins” (PLoS ONE, 2013)
